# US5126258A (priority 1988, dated 1992)
# “Also recorded” adds a separate entry of the source.
# Assays:
# [1] = Chemical stability
# [2] = test system: P2 50D8; assay: Catalytic hydrolysis by receptor P2 50D8; assay type: biochemical, mouse
# Procedure: (§1) Two further catalytic monoclonal receptors were similarly prepared by another fusion using Compound 2i linked to an antigenic carrier as immunogen. Those two catalytic receptor molecules and their hybridomas were designated "P2 50D8" and "P2 57G4".
# (§2) In one study, twenty-eight monoclonal anti-hapten antibodies to phosphonate 2i from two separate fusion experiments were assayed. […] Antibodies to Compound 4i as hapten were assayed in the same manner. Twelve gamma-globulins were screened as described above. Compound 5 is homologous only in the acyl portion of this larger hapten; however, all but three of these cross-reacted with smaller phosphonate 2 in an ELISA assay as described herein. For two of these there was observed a fluorescence change, occurring in the first 5 minutes of incubation, which corresponds to about 50 percent of that for complete hydrolysis. The background rate of hydrolysis was reestablished after this initial reaction leveled off.
# [3] = test system: hog liver esterase; assay type: biochemical; settings: pig, 5 µM, pH 8
# Procedure: (§3) The lack of spectroscopic distinction between such esters and their hydrolysis products recommended a chromatographic analysis of the process. Referring to FIG. 3, a mixture of Compound 7 (5 uM) and the monoclonal antibody from hybridoma P3 6D4 (0.1 uM) in phosphate buffer (50 mM, pH 8.0) was analyzed over time by high performance liquid chromatography (HPLC). The accelerated hydrolysis of the ester was apparent from the decrease of its peak and the concurrent increase in two new peaks that correspond with the expected products. Under these conditions, the ester is completely consumed in 60-80 minutes during which time the background rate accounts for about 12 to 16 percent hydrolysis. The chromatographic profile is the same as that produced by treatment with hog liver esterase.
# (§4) *Hydrolysis of carboxylic esters by monoclonal antibody (from hybridoma P
# (§5) 6D4) and by hog liver esterase (Sigma Chemical Co., St. Louis, MO, EC
# (§6) 3.1.1.1) determined by HPLC on an analytical RPC18 column (Vydac 218TP54)
# (§7) with isocratic elution [acetonitrile: water plus 0.1 percent
# (§8) trifluoroacetic acid; (35:65)] at a flow rate of 1.0 ml/min and the
# (§9) detector set at 245 nm. The initial substrate concentration was 5
# (§10) micromolar and that the internal standard (acetophenone) was 10 microm
# (§11) olar in 50 mM phosphate buffer at pH 8.0. The retention times (minutes)
# (§12) were as follows: acetophenone, 5.0; Compound 7, 8.3; Compound 8, 6.7;
# (§13) Compound 9, 4.1; Compound 10, 11.1 (40 percent acetonitrile elution);
# (§14) Compound 11, 8.2. The antibody concentration was 15 micrograms/ml (0.1
# (§15) micromolar) and that of esterase was 5.5 micrograms/ml. The reaction
# (§16) mixtures were kept at 25 degrees C. and aliquots were analyzed at
# (§17) intervals of 2 to 20 minutes. Three or more determinations were used to
# (§18) plot a curve from which the halflife of the reaction is estimated (see
# [4] = test system: monoclonal antibody P3 6D4; assay: Ester hydrolysis by monoclonal antibody P3 6D4, HPLC; assay type: biochemical, mouse; settings: pH 8.0
# Procedure: FIG. 3 illustrates the rate of hydrolysis of a carboxylic ester (Compound 7) determined by HPLC under the conditions described in Table 1 (50 mM phosphate buffer at pH 8.0 and 23 degrees C). ( ) Uncatalyzed (background)rate of hydrolysis. (.quadrature.) Effect of 0.5 micromolar non-specific monoclonal IgG. ( ) 0.1 Micromolar anti-Compound 4 monoclonal antibody from hybridoma P3 6D4. The superimposed curve represents a theoretical exponential decay which fits the data points.
# In particular, an exemplary monoclonal receptor was produced by the standard hybridoma technology of Kohler et al., Nature, 256, 495 (1975). Specifically, female 129G1X^+ mice were immunized by intraperitoneal injection with an inoculum of 100 micrograms of conjugate (e.g., Compound 4i bound to KLH) in 300 microliters of a 1:1 mixture of phosphate buffered saline (PBS) pH 7.4 and complete Freund's adjuvant. Two weeks later, the mice were again injected in a like manner with 50 micrograms of the foregoing conjugate in 300 microliters of a 1:1 mixture of PBS (pH 7.4) and 10 mg/ml alum. After an additional eight weeks, the mice were immunized intravenously with 50 micrograms of the conjugate in 200 microliters of PBS (pH 7.4). The spleens were removed from the mice 4 days later, and the spleen cells were fused to myeloma cells.
# as §3, §4, §5, §6, §7, §8, §9, §10, §11, §12, §13, §14, §15, §16, §17, §18
# [5] = test system: P2 57G4; assay: Catalytic hydrolysis by receptor P2 57G4; assay type: biochemical, mouse
# Procedure: as §1, §2
# [6] = Spontaneous (uncatalyzed, background) hydrolysis; assay type: physicochemical; settings: spectrophotometric at 245 nm, initial rates at five ester concentrations; figure = k × 10^5
# Procedure: The practical range of pH for the assay is limited by the rapid spontaneous rate of hydrolysis of an ester Compound 5 above pH 8.0. Initially, the ester was used at a concentration that was about four-fold greater than that of the protein, and the mixture was incubated at pH 7.2 for 10 minutes. Any change in fluorescence above background was noted.
# as §3
# ^c The rate constants were determined spectrophotometrically (at 245
# nm) by measuring initial rates at five concentrations of ester.
# ^1 Preliminary initial hydrolyses shown as the percentage of admixed
# reactant ligand consumed for catalyzed and spontaneous hydrolyses. "--" =
# No hydrolysis observed. "NT" = Not tried. All reactions were carried out
# at pH 8.0 in a 50 mM phosphate buffer unless otherwise noted. Hydrolytic
# percentages were determined by HPLC using a Hitachi model 655A12 liquid
# chromatograph with a C18 Vydac 201TP54 column, except as noted below.
# Mixtures of acetonitrile a nd water containing 0.1 percent trichloroaceti
# acid [28:72-50:50 (v/v)] were used as elutant. Hydrolyses of Compounds 5
# and 20 were assayed using fluorescence data.
# ^5 Spontaneous hydrolytic percentages for the time period indicated.
# (§19) Reaction kinetics were studied using three reactant ligands as substrates for monoclonal receptors 37G2 and 22F5. Data from initial rates were consistent with Michaelis-Menten reaction mechanism for a usual enzyme-substrate system. Initial rates were followed using at 271 nm using a U.V.-visible spectorphotometer for Compound 17, and a fluorescence spectrometer for Compounds 5 and 20, using an excitation wavelength of 355 nm and an emission wavelength of 455 nm for both compounds.
# [7] = test system: monoclonal receptor P3 6D4; assay: Stoichiometric transacylation reaction of monoclonal receptor P3 6D4 with coumarin ester Compound 5 (fluorescence) and its inhibition/inactivation; assay type: biochemical, mouse
# Procedure: A Perkin-Elmer LS-5 fluorescence spectrometer was operated at a fixed wavelength, using 355 nanometers (nm) for excitation and measuring the emission at 455 nm. A stock solution of the coumarin ester 5 was prepared in dioxane and was diluted to the desired concentrations in Tris-HCl (50 mM, pH 7) or sodium phosphate (50 mM, pH 4-9).
# Reactions were run at 23 degrees C and were initiated by the addition of an aliquot of antibody solution (1 mg/ml) to substrate solutions to provide a final protein concentration of 100 nM. Final fluorescence values were determined by hydrolysis of the substrate with pig liver esterase. The observed reaction rate was corrected for spontaneous hydrolysis. Reaction kinetics were studied by measuring initial rates under pseudo-first order conditions. Active protein concentration was extrapolated from fluorescence values at the end of the reaction. The kinetic parameters were obtained by fitting the data to a hyperbolic curve and from double reciprocal plots. Inhibition constants were determined from the Lineweaver-Burk plot data with at least five inhibitor concentrations. All the data were studied by a least squares analysis.
# Antibody preparations were inactivated without introducing fluorescent products by the addition of the activated ester (Compound 8) in dioxane to a solution of the IgG (5 mg/ml) in Tris-HCl (50 mM, pH 6.5) at a ratio of 5 moles of the ester (Compound 8) per mole IgG.
# Protein modification was performed in an analogous manner, by the addition of a dioxane solution of the reagent at a known concentration to the antibody. The solution was incubated for 30 minutes before filtration through Sephadex G-25. The activity remaining was compared to control samples. Aliquots of IgG (5 mg/ml) inactivated with the ester (Compound 8) were diluted with four volumes of phosphate buffer (50 mM, pH 4-9, at intervals of 1 pH unit). Any pH change was recorded, and the sample was stored at 4 degrees C for 24 hours.
# Initially, the ester was used at a concentration that was about four-fold greater than that of the protein, and the mixture was incubated at pH 7.2 for 10 minutes. Any change in fluorescence above background was noted.
# The termination of the reaction is noted by the return of the rate of fluorescence increase to the background level.
# [8] = biological target: Monoclonal Receptor 22F5; assay: Kinetics of hydrolysis by receptor 22F5; assay type: biochemical, mouse; settings: figure = Ki × 10^7
# From the text: as §19
# (§20) Lineweaver-Burke plots for the catalyzed hydrolysis of Compounds 17, 5 and 20 obtained in the presence and absence of Compound 12i as inhibitor were prepared as discussed for FIG. 4. In particular, Compound 17 was present at concentrations of 1-16 uM with inhibitor concentrations of 100 and 300 nanomolar (nM). Compound 5 was present at concentrations of 1-10 uM with inhibitor concentrations of 100 and 200 nM. Compound 20 was present at concentrations of 2-20 uM with inhibitor concentrations of 25 and 100 nM.
# *Fluorescence assays using Compounds 20 and 5 were carried out in a
# PerkinElmer fluorescence spectrophotometer (moded LS5; Oakbrook, IL) usin
# 200 nanomolar receptor (based on a molecular weight of 150,000 daltons) i
# (§21) 50 mM phosphate buffer at a pH value of 8.0. The reactant ligand was
# (§22) dissolved in dioxane and admixed in the amounts discussed above. Two
# (§23) milliliters of reaction solution were utilized as was a dioxane
# concentration of 2 percent by volume. […]
# [9] = biological target: Monoclonal Receptor 37G2; assay: Kinetics of hydrolysis by receptor 37G2; assay type: biochemical, mouse; settings: inhibitor Compound 12i (100 and 300 nM), substrate Compound 17; figure = Ki × 10^7
# From the text: as §19
# as §20, with “100 nM. […]” for “100 nM.”
# as §21, §22, §23
# concentration of 2 percent by volume. Assays with Compound 17 as reac tan
# ligand utilized 500 nanomolar receptor (based on a molecular weight of
# 150,000 daltons) in the above buffer, using the reactant ligand dissolved
# in dioxane and a total dioxane concentration of 2 percent by volume.
catalytic hydrolysis by P2 50D8 [2],t1/2 Esterase [3],catalytic hydrolysis by P2 57G4 [5],Compound,accelerated hydrolysis by P3 6D4 (substrate acceptance) [4],kuncat [6],other results
,,,COC(=O)c1cccc(C(=O)NCc2cc(NC(=O)CCCCC(=O)ON3C(=O)CCC3=O)ccc2OP(=O)(O)Cc2ccc(NC(=O)C(F)(F)F)cc2)n1 [Compound 4i],,,hydrolytic stability (NHS group) ([1]; store at zero degrees C in a dessicator): prone to hydrolysis
capable of catalytically hydrolyzing,4 min,capable of catalytically hydrolyzing,CC(=O)Nc1ccc(CC(=O)Oc2ccc(NC(C)=O)cc2)cc1 [Compound 9],not accepted as substrates,25000 s⁻¹,
,2 min,,O=C(Cc1ccc(NC(=O)C(F)(F)F)cc1)Oc1ccccc1 [Compound 10],no effect on the hydrolytic rate; also recorded: not catalyzed,,stoichiometric antibody reaction (release of alcohol) [7]: Neither is the stoichiometric reaction apparent
capable of catalytically hydrolyzing,5 min,capable of catalytically hydrolyzing,CC(=O)Nc1ccc(CC(=O)Oc2ccc(NC(=O)C(F)(F)F)cc2)cc1 [Compound 11],not manifested by the accelerated hydrolysis,610000 s⁻¹,
,,,Cc1ccc2cccc(NP(=O)(O)Cc3ccc(NC(=O)C(F)(F)F)cc3)c2n1 [Compound 12i],,,"Ki ([8]; inhibitor Compound 12i (25 and 100 nM), substrate Compound 20): 70 nM; Ki ([8]; inhibitor Compound 12i (100 and 200 nM), substrate Compound 5): 110 nM; Ki [9]: 140 nM; stability ([1]; pH 3.5-7.3, room temperature): at least 11 days"
,,,Cc1ccc2cccc(NP(=O)(O)Cc3ccc(NC(=O)CCCC(=O)ON4C(=O)CCC4=O)cc3)c2n1 [Compound 13],,,"decomposition ([1]; pH 3.5 and 6.2): No signs of decomposition; stability at zero degrees C ([1]; zero degrees C, over 5 days): stable"
